{"source": "patent US8492510B2", "about": "“Multifunctional degradable nanoparticles with control over size and functionalities” (Vanderbilt University, priority 2007, dated 2013)", "system": "human microvascular endothelial cells (HMEC)", "assay": "Internalization into HMEC, temperature effect and control experiments (confocal microscopy)", "assay_type": "cell-based", "settings": "10 uM, 60 min, 37° C.", "method": "The human microvascular endothelial cells (HMEC) cells were incubated with conjugates (10 uM) for 2.5 min at 4° C. or at 37° C.\nThe HMEC cells were incubated with conjugates (1 uM) for 30 min at 4° C. or at 37° C.\n(b) The HMEC cells were incubated with Boc-protected guanidinylated FD-2 (10 uM) for 60 min at 37° C.\nInternalization of FD-1 and FD-2 in mammalian cells was assessed using two different cell lines and a previously described method [Futaki, S.; Nakase, I.; Suzuki, T.; Youjun, Y.; Sugiura, Y. Biochemistry 2002, 41, 7925.] with NIH-3T3 fibroblasts and HMEC (human microvascular endothelial cells) and a Zeiss LSM 510 confocal microscope. […] [Futaki, S.; Nakase, I.; Suzuki, T.; Youjun, Y.; Sugiura, Y. Biochemistry 2002, 41, 7925; Vivès, E.; Brodin, P.; Lebleu, B. J. Biol. Chem. 1997, 272, 16010.] Furthermore, the extent of internalization increased in an incubation time-dependent manner, and it was observed that after just 10 min, the fluorescence intensity of cells treated with FD-2 was near saturation. […] L. Org. Lett. 2005, 7, 4815.] but also regulate the subcellular localization of the molecule and its putative cargo. […] Therefore, the dendrimer with a hexyl spacer crosses the cell membrane faster than the molecule with an ethyl chain. On the other hand, the localization patterns can also be controlled by the length of the spacer. […]"}
{"substance": "fluorescein isothiocyanate [free FITC]", "values": [{"measurement": "fluorescence of cells in control experiments", "result": "no"}]}
